Measurements taken from US9139593B2, “Azetidine compounds, compositions and methods of use” (Hoffman-La Roche Inc., priority 2011, dated 2015).
pIC50: −log10 of the molar value.

Molecular target: Human Soluble Epoxide Hydrolase (Homo sapiens (Human), UniProt P34913)
Test: Human Soluble Epoxide Hydrolase Enzyme Assay
Type: biochemical
Conditions: resorufin epoxide substrate, fluorescence, room temperature, triplicates
Protocol: Human Soluble Epoxide Hydrolase Enzyme Assay
Test compounds (1.6 mM stock in DMSO) were diluted 3 fold in series in DMSO and 0.8 microliters per well were added into 384-well NBS microplates (Corning). Resorufin epoxide substrate (20 uM stock in DMSO) was diluted to 5 μM with Assay Buffer (25 mM bis-Tris-HCl, pH 7.0, 1 mM DTT and 0.2 mg/ml BSA) and 8 microliters per well were added to the microplates. Thirty two microliters per well of 3.6 nM soluble epoxide hydrolase in Assay Buffer was then added. The samples were incubated at room temperature and assay signals were monitored by reading excitation at 530 nm and emission fluorescence at 590 nm on a PlateVision (Zeiss) reader every 2 minutes for 8 times. The reaction rate, % inhibition and IC50 values were calculated using AssayAnalyzer and Condoseo software (Genedata AG, Basel, Switzerland).
All the experiments were done in triplicates.
The compounds of the present invention were tested for their capacity to inhibit sEH activity.

Human Soluble Epoxide Hydrolase, sequence (P34913 whole entry): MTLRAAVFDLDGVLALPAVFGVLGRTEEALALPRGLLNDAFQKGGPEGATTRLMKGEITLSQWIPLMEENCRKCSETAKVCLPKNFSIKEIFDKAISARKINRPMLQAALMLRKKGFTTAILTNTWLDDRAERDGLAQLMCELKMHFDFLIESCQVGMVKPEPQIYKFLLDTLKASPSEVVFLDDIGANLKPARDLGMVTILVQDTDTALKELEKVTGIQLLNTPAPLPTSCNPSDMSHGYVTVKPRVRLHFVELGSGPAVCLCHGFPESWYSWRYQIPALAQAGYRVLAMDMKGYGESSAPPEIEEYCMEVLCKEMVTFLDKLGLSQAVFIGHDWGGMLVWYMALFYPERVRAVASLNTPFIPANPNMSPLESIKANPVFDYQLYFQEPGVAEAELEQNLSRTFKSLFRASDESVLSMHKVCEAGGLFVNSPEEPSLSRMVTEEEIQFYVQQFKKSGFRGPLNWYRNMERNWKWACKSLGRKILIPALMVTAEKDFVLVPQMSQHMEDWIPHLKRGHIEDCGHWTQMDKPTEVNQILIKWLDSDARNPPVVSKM

pIC50 | Compound
6.44 | O=C(NCc1ccc(Cl)cc1Cl)N1CC2CN(c3ncccn3)C2C1 (racemic) [Example 20, rac-6-Pyrimidin-2-yl-3,6-diaza-bicyclo[3.2.0]heptane-3-carboxylic acid 2,4-dichloro-benzylamide]
6.45 | O=C(O)c1ccc(N2CC3CN(C(=O)NCc4ccc(Cl)cc4Cl)CC32)cc1 (racemic) [Example 21, rac-4-[3-(2,4-Dichloro-benzylcarbamoyl)-3,6-diaza-bicyclo[3.2.0]hept-6-yl]-benzoic acid]
6.62 | O=C(NCc1ccc(Cl)cc1Cl)N1CC2(C1)CN(C(=O)c1ccccc1)C2 [Example 1, 6-Benzoyl-2,6-diaza-spiro[3.3]heptane-2-carboxylic acid 2,4-dichloro-benzylamide]
5.90 | O=C(O)c1ccc(N2CC3(CN(C(=O)NCc4ccc(Cl)cc4Cl)C3)C2)cc1 [Example 2, 4-[6-(2,4-Dichloro-benzylcarbamoyl)-2,6-diaza-spiro[3.3]hept-2-yl]-benzoic acid]
5.63 | O=C(NCc1ccc(Cl)cc1Cl)N1CC2(C1)CN(c1ncccn1)C2 [Example 4, 6-Pyrimidin-2-yl-2,6-diaza-spiro[3.3]heptane-2-carboxylic acid 2,4-dichloro-benzylamide]
6.55 | O=C(NCc1ccc(Cl)cc1Cl)N1CC2(CCN2S(=O)(=O)c2ccc(F)cc2)C1 [Example 5, N-(2,4-Dichlorobenzyl)-1-(4-fluorophenylsulfonyl)-1,6-diazaspiro[3.3]heptane-6-carboxamide]
6.49 | O=C(NCc1ccc(Cl)cc1Cl)N1CCC12CN(S(=O)(=O)c1ccc(Cl)cc1)C2 [Example 6, 6-(4-Chlorophenylsulfonyl)-N-(2,4-dichlorobenzyl)-1,6-diazaspiro[3.3]heptane-1-carboxamide]
6.90 | O=C(NCc1ccc(Cl)cc1Cl)N1CC2(CCN2c2ncccn2)C1 [Example 7, N-(2,4-Dichlorobenzyl)-1-(pyrimidin-2-yl)-1,6-diazaspiro[3.3]heptane-6-carboxamide]
5.70 | O=C(NCCCc1ccccc1)N1CC2(CCN2Cc2ccccc2)C1 [Example 8, Benzyl-1,6-diaza-spiro[3.3]heptane-6-carboxylic acid (3-phenyl-propyl)-amide]
5.70 | O=C(NCCCc1ccccc1)N1CC2(CCN2S(=O)(=O)c2ccc(Cl)cc2)C1 [Example 9, 1-(4-Chloro-benzenesulfonyl)-1,6-diaza-spiro[3.3]heptane-6-carboxylic acid (3-phenyl-propyl)-amide]
5.59 | O=C(NC12CC3CC(CC(C3)C1)C2)N1CC2(CCN2S(=O)(=O)c2ccc(Cl)cc2)C1 [Example 10, 1-(4-Chloro-benzenesulfonyl)-1,6-diaza-spiro[3.3]heptane-6-carboxylic acid adamantan-1-ylamide]
6.19 | O=C(NCc1ccc(Cl)cc1Cl)N1CC2(CCN2S(=O)(=O)c2ccc(Cl)cc2)C1 [Example 11, 1-(4-Chloro-benzenesulfonyl)-1,6-diaza-spiro[3.3]heptane-6-carboxylic acid 2,4-dichloro-benzylamide]
6.61 | O=C(NCc1ccccc1OC(F)(F)F)N1CC2(CCN2S(=O)(=O)c2ccc(Cl)cc2)C1 [Example 12, 1-(4-Chloro-benzenesulfonyl)-1,6-diaza-spiro[3.3]heptane-6-carboxylic acid 2-trifluoromethoxy-benzylamide]
6.32 | O=C(NCCCc1ccccc1)N1CC2(CCN2S(=O)(=O)c2ccccc2C(F)(F)F)C1 [Example 13, 1-(2-trifluoromethyl-benzenesulfonyl)-1,6-diaza-spiro[3.3]heptane-6-carboxylic acid (3-phenyl-propyl)-amide]
5.55 | O=C(NCCCc1ccccc1)[C@@H]1CCC12CN(S(=O)(=O)c1ccccc1Cl)C2 [Example 14, (R)-2-(2-Chlorophenylsulfonyl)-N-(3-phenylpropyl)-2-azaspiro[3.3]heptane-5-carboxamide]
6.54 | O=C(NCCCc1ccccc1)[C@H]1CCC12CN(S(=O)(=O)c1ccccc1Cl)C2 [Example 15, (S)-2-(2-Chlorophenylsulfonyl)-N-(3-phenylpropyl)-2-azaspiro[3.3]heptane-5-carboxamide]
5.57 | O=C(NCc1ccc(Cl)cc1Cl)N[C@@H]1CCC12CN(S(=O)(=O)c1ccc(Cl)cc1)C2 [Example 16, (R)-1-(2-(4-Chlorophenylsulfonyl)-2-azaspiro[3.3]heptan-5-yl)-3-(2,4-dichlorobenzyl)urea]
6.17 | O=C(NCc1ccc(Cl)cc1Cl)N[C@H]1CCC12CN(S(=O)(=O)c1ccc(Cl)cc1)C2 [Example 17, (S)-1-(2-(4-Chlorophenylsulfonyl)-2-azaspiro[3.3]heptan-5-yl)-3-(2,4-dichlorobenzyl)urea]

Compound | pIC50
O=C(NCc1ccc(Cl)cc1Cl)N1CC2CN(C(=O)c3ccccc3)C2C1 (racemic) [Example 18, rac-6-Benzoyl-3,6-diaza-bicyclo[3.2.0]heptane-3-carboxylic acid 2,4-dichloro-benzylamide] | 6.74
O=C(NCc1ccc(Cl)cc1Cl)N1CC2CN(S(=O)(=O)c3ccccc3)C2C1 (racemic) [Example 19, rac-6-Benzenesulfonyl-3,6-diaza-bicyclo[3.2.0]heptane-3-carboxylic acid 2,4-dichloro-benzylamide] | 6.62
